These results are taken from patent US9242996B2 (Novartis AG, priority 2013, dated 2016).

The structures appear in SMILES notation.

What is called IC50 is the point on the concentration scale where inhibition reaches its midpoint. Read a low IC50 as greater potency.

activated ERK2, sequence (P28482 whole entry): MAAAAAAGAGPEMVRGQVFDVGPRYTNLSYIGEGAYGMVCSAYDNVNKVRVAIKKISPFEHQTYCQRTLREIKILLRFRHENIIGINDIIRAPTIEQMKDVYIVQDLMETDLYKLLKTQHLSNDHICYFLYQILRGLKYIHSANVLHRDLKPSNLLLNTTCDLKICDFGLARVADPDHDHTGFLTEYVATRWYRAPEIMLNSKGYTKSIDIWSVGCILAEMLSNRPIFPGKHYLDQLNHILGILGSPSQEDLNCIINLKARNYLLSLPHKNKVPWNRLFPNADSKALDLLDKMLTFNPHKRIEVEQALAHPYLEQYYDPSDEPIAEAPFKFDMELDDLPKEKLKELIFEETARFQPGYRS

The assay concerns the target activated ERK2 (Homo sapiens (Human), UniProt P28482). Description: Activated ERK2 (20 pM) Kinase Assay (AlphaScreen, ERKtide phosphorylation). Type of assay: biochemical. The settings on record: 0.02 nM ERK2, 400 nM ERKtide peptide, 35 μM ATP, 30 min preincubation. The method, then: Activated ERK2 (20 pM) Kinase Assay:
The assay was carried out in 20 mM HEPES [pH 7.5], 5 mM MgCl2, 1 mM DTT, 0.01% Tween-20, 0.05% BSA using 0.02 nM ERK2, 400 nM ERKtide peptide and 35 μM ATP (all concentrations are final in the reaction) in a total volume of 10.25 μL. […] Compound dilution series were prepared in 100% DMSO. ERK2 was preincubated with compounds for 30 minutes at ambient temperature. Reaction was initiated by addition of a substrate cocktail of ERKtide peptide and ATP and was allowed to proceed for 4 hours at ambient temperature. Reaction was terminated by addition of 10 μL of a 2× stop buffer consisting of 100 mM Tris-Cl [pH 7.5], 25 mM EDTA, 0.01% Tween 20, 20 μg/mL of AlphaScreen Protein A Acceptor Beads, 20 μg/mL of Streptavidin Donor Beads (PerkinElmer, Waltham, Mass.), and 1:1000 dilution phospho-EGF Receptor (Thr669) antibody (Cat #8808, Cell Signaling Technology, Danvers, Mass.). Terminated reactions were read, after overnight incubation in the dark, on an EnVision Multilabel Plate Reader (PerkinElmer, Waltham, Mass.), with excitation and emission wavelengths set to 680 nm and 570 nm, respectively. IC50 values were determined using a four-parameter fit.
As to `Nc1ncc([C@H]2CCC[C@@H](O)C2)nc1-c1ccc(C(=O)N[C@H](CO)c2cccc(Cl)c2)c(F)c1` (single isomer, unassigned) [Example 198], the IC50 amounted to 0.223 nM.
Turning to `Nc1ncc([C@H]2CCC[C@@H](O)C2)nc1-c1ccc(C(=O)N[C@H](CO)c2cccc(Cl)c2)c(F)c1` (single isomer, unassigned) [Example 199], 0.3 nM corresponded to half-maximal inhibition (IC50).
Turning to `NC[C@@H](NC(=O)c1ccc(-c2nc(C3CCCC(O)C3)cnc2N)cc1F)c1cccc(Cl)c1` (single isomer, unassigned) [Example 367], the IC50 was 0.15 nM. Compared with the last compound, the IC50 is about 2-fold lower.
Then `NC[C@@H](NC(=O)c1ccc(-c2nc(C3CCCC(O)C3)cnc2N)cc1F)c1cccc(Cl)c1` (single isomer, unassigned) [Example 368], with 0.0895 nM; and `NC[C@@H](NC(=O)c1ccc(-c2nc(C3CCCC(O)C3)cnc2N)cc1F)c1cccc(Cl)c1` (single isomer, unassigned) [Example 370], with 0.138 nM; and `NC[C@@H](NC(=O)c1ccc(-c2nc(C3CCCC(O)C3)cnc2N)cc1F)c1cccc(Cl)c1` (single isomer, unassigned) [Example 372], with 0.04 nM.
Consider `Nc1ncc(C2CCCC(O)C2)nc1-c1ccc(C(=O)N[C@H](CO)c2cc(F)cc(Br)c2)c(F)c1` (single isomer, unassigned) [Example 384], for which the IC50 came out at 0.0614 nM.
Then `Nc1ncc(C2CCCC(O)C2)nc1-c1ccc(C(=O)N[C@H](CO)c2cccc(Br)c2)c(F)c1` (single isomer, unassigned) [Example 385], with 0.122 nM; and `Nc1ncc(C2CCCC(O)C2)nc1-c1ccc(C(=O)N[C@H](CO)c2cc(F)cc(Br)c2)c(F)c1` (single isomer, unassigned) [Example 386], with 0.0333 nM; and `Nc1ncc(C2CCCC(O)C2)nc1-c1ccc(C(=O)N[C@H](CO)c2cccc(Br)c2)c(F)c1` (single isomer, unassigned) [Example 389], with 0.0308 nM.
In turn, `Nc1ncc(C2CCCC(O)C2)nc1-c1ccc(C(=O)N[C@H](CO)c2cccc(Cl)c2)c(F)c1` (single isomer, unassigned) [Example 391] returned a half-inhibitory concentration (IC50) of 0.115 nM.
As for `Nc1ncc(C2CCCC(O)C2)nc1-c1ccc(C(=O)N[C@H](CO)c2cccc(Cl)c2)c(F)c1` (single isomer, unassigned) [Example 393], the midpoint of inhibition, the IC50, lay at 0.0752 nM.
As to `CN1C[C@@H](NC(=O)c2ccc(-c3cc(-c4cnn(C)c4)cnc3N)cc2F)[C@H](c2ccc(F)c(Cl)c2)C1` (stereo in doubt) [Example 207, trans-4-(2-amino-5-(1-methyl-1H-pyrazol-4-yl)pyridin-3-yl)-N-((3S,4R)-4-(3-chloro-4-fluorophenyl)-1-methylpyrrolidin-3-yl)-2-fluorobenzamide], the half-maximal inhibitory concentration (IC50) was 430 nM.
`CN1C[C@H](NC(=O)c2ccc(-c3cc(-c4cnn(C)c4)cnc3N)cc2F)[C@@H](c2ccc(F)c(Cl)c2)C1` (stereo in doubt) [Example 208, trans-4-(2-amino-5-(1-methyl-1H-pyrazol-4-yl)pyridin-3-yl)-N-((3R,4S)-4-(3-chloro-4-fluorophenyl)-1-methylpyrrolidin-3-yl)-2-fluorobenzamide]: the IC50 was determined as 7440 nM.
`CN1C[C@@H](NC(=O)c2ccc(-c3cc(-c4cnn(C)c4)cnc3N)cc2F)[C@H](c2ccc(Cl)c(F)c2)C1` (stereo in doubt) [Example 209, trans-4-(2-amino-5-(1-methyl-1H-pyrazol-4-yl)pyridin-3-yl)-N-((3S,4R)-4-(4-chloro-3-fluorophenyl)-1-methylpyrrolidin-3-yl)-2-fluorobenzamide] returned an IC50 of 3280 nM.
The compound `CN1C[C@H](NC(=O)c2ccc(-c3cc(-c4cnn(C)c4)cnc3N)cc2F)[C@@H](c2ccc(Cl)c(F)c2)C1` (stereo in doubt) [Example 210, trans-4-(2-amino-5-(1-methyl-1H-pyrazol-4-yl)pyridin-3-yl)-N-((3R,45)-4-(4-chloro-3-fluorophenyl)-1-methylpyrrolidin-3-yl)-2-fluorobenzamide] registered an IC50 of 10300 nM.
Compound `CO[C@H]1CC[C@H](c2cnc(N)c(-c3ccc(C(=O)N[C@H](CN)c4cccc(Cl)c4)c(F)c3)n2)CC1` [Example 18, N—((S)-2-amino-1-(3-chlorophenyl)ethyl)-4-(3-amino-6-((1r,4S)-4-methoxycyclohexyl)pyrazin-2-yl)-2-fluorobenzamide] displayed an IC50 of 0.0396 nM.
With `C[C@]1(O)CC[C@@H](c2cnc(N)c(-c3ccc(C(=O)N[C@H](CO)c4cccc(Cl)c4)c(F)c3)n2)CC1` [Example 105, 4-(3-amino-6-((1s,4R)-4-hydroxy-4-methylcyclohexy)pyrazin-2-yl)-N-((S)-1-(3-chlorophenyl)-2-hydroxyethyl)-2-fluorobenzamide] the figure was 2.56 nM; with `C[C@]1(O)CC[C@H](c2cnc(N)c(-c3ccc(C(=O)N[C@H](CO)c4cccc(Cl)c4)c(F)c3)n2)CC1` [Example 106, 4-(3-amino-6-((1r,4S)-4-hydroxy-4-methylcyclohexyl)pyrazin-2-yl)-N-((S)-1-(3-chlorophenyl)-2-hydroxyethyl)-2-fluorobenzamide], 1.28 nM.
With `Cc1c(-c2cnc(N)c(-c3ccc(C(=O)N[C@H](CO)c4cccc(Cl)c4)c(F)c3)c2)cnn1C` [Example 133, (S)-4-(2-amino-5-(1-deuterido-methyl, 5-methyl-1H-pyrazol-4-yl)pyridin-3-yl)-N-(1-(3-chlorophenyl)-2-hydroxyethyl)-2-fluorobenzamide] the figure was 0.0187 nM; with `Nc1ncc(C2CCOCC2)nc1-c1ccc(C(=O)N[C@H](CO)c2ccccc2)cc1` [Example 135, (S)-4-(3-amino-6-(2,2,6,6-tetradeuterido-tetrahydro-2H-pyran-4-yl)pyrazin-2-yl)-N-(2-hydroxy-1-phenylethyl)benzamide], 0.631 nM; with `NC[C@@H](NC(=O)c1ccc(-c2nc(C3CCOCC3)cnc2N)cc1F)c1cccc(Cl)c1` [Example 174, (S)—N-(2-amino-1-(3-chlorophenyl)ethyl)-4-(3-amino-6-(tetrahydro-2H-pyran-4-yl)pyrazin-2-yl)-2-fluorobenzamide], 0.021 nM.
`CNC[C@@H](NC(=O)c1ccc(-c2nc(C3CCOCC3)cnc2N)cc1F)c1cccc(Cl)c1` [Example 176, (S)-4-(3-amino-6-(tetrahydro-2H-pyran-4-yl)pyrazin-2-yl)-N-(1-(3-chlorophenyl)-2-(methylamino)ethyl)-2-fluorobenzamide] showed an IC50 of 0.0282 nM. This IC50 and that of the compound before are within 1.5-fold of each other.
As to `Nc1ncc([C@H]2CC[C@H](O)CC2)nc1-c1ccc(C(=O)N[C@H](CO)c2cc(F)cc(CF)c2)c(F)c1` [Example 177, 4-(3-amino-6-((1r,4S)-4-hydroxycyclohexyl)pyrazin-2-yl)-2-fluoro-N—((S)-1-(3-fluoro-5-(fluoromethyl)phenyl)-2-hydroxyethyl)benzamide], inhibition was half-maximal at 0.0229 nM (IC50). This IC50 and that of the compound before are within 1.5-fold of each other.
With `Nc1ncc([C@H]2CC[C@@H](O)CC2)nc1-c1ccc(C(=O)N[C@H](CO)c2cc(F)cc(CF)c2)c(F)c1` [Example 178, 4-(3-amino-6-((1s,4R)-4-hydroxycyclohexyl)pyrazin-2-yl)-2-fluoro-N—((S)-1-(3-fluoro-5-(fluoromethyl)phenyl)-2-hydroxyethyl)benzamide] the figure was 0.211 nM.
